Data set [1] in a line: Evaluation of blood cell number in mouse. The data set is classed as in vivo. The following applies: male ICR mice, oral, repeated 7 or 9 days. Here is the method:
All compounds were repeatedly administered to the mice at a dose of 1 mg/kg, 10 mg/kg or 100 mg/kg (body weight) for 7 or 9 days. One day after the final administration of the compound, the whole blood was collected.
Using Sysmex XT-1800i (Sysmex Corporation), the white blood cell number, red blood cell number, and platelet number in the collected whole blood per unit volume were measured. The influence of each compound on each blood cell number was determined by calculating the number with the mean of each blood cell number of the mouse without administration of the compound (0 mg/kg group), and the mean of each blood cell number in the whole blood of a mouse with the administration of the compound.

The nature of data set [2]: Evaluation of hippocampal distribution in mouse. It is filed as in vivo. Particulars: male ICR mice, 10 mg/kg oral; for concentration at 0.5 h: 0.5 h after administration.
The mark [3] stands for this setting: male, ICR, mouse, hippocampus, po, 10 mg/kg, 1 h after administration, read-out: Concentration Hippocampus, Mean.
[4] abbreviates: male, ICR, mouse, plasma, po, 10 mg/kg, 1 h after administration, read-out: Concentration Plasma, Mean.
Setting [5] is: 1 h after administration, sulfate.

The text below walks through data of patent US9487511B2, “Cyclopropanamine compound and use thereof” (Takeda Pharmaceutical Company Limited, priority 2014, dated 2016).

Counter-ions that a name gives are not always drawn. Like-named read-outs stand apart in the source and are kept apart here.

For `O=C(NC1CCOCC1)c1csc([C@@H]2C[C@H]2NCC2CC2)c1` [Example 71, 5-((1R,2R)-2-((cyclopropylmethyl)amino)cyclopropyl)-N-(tetrahydro-2H-pyran-4-yl)thiophene-3-carboxamide hydrochloride], the figures for the “Platelets, Mean” value in data set [1] (1 mg/kg), in data set [1] (10 mg/kg) and in data set [1] (100 mg/kg) were 1178 10^3 cells, 1197 10^3 cells and 1322 10^3 cells, respectively. For the same compound, the “Red blood cells, Mean” value in data set [1] (1 mg/kg) is given as 873 10^4 cells; in data set [1] (10 mg/kg), 817 10^4 cells; in data set [1] (100 mg/kg), 853 10^4 cells. Besides, the “White blood cells, Mean” value was 275 10 cells in data set [1] (1 mg/kg), 276 10 cells in data set [1] (10 mg/kg) and 323 10 cells in data set [1] (100 mg/kg). The concentration at 1 h turned out to be 82 ng/g in data set [2] (setting [3]) and 229 ng/mL in data set [2] (setting [4]).

`Cc1nnc(NC(=O)c2cc([C@@H]3C[C@H]3NC3CCC3)c(C)s2)s1` [Example 99, 4-((1S,2R)-2-(cyclobutylamino)cyclopropyl)-5-methyl-N-(5-methyl-1,3,4-thiadiazol-2-yl)thiophene-2-carboxamide hydrochloride]: the figures for the “Platelets, Mean” value in data set [1] (1 mg/kg), in data set [1] (10 mg/kg) and in data set [1] (100 mg/kg) were 1442 10^3 cells, 1380 10^3 cells and 1519 10^3 cells, respectively. The “Red blood cells, Mean” value in data set [1] (1 mg/kg) was 892 10^4 cells; in data set [1] (10 mg/kg) it was 915 10^4 cells; in data set [1] (100 mg/kg), 876 10^4 cells. The “White blood cells, Mean” value in data set [1] (1 mg/kg) was 399 10 cells; in data set [1] (10 mg/kg), 378 10 cells; in data set [1] (100 mg/kg) it was 347 10 cells. Moreover, the concentration at 1 h in data set [2] (setting [3]) is 640 ng/g; in data set [2] (setting [4]), 2950 ng/mL.

For the compound `Cc1nnc(NC(=O)c2cc([C@@H]3C[C@H]3NCC3CCOCC3)c(C)s2)s1` [Example 97, 5-methyl-N-(5-methyl-1,3,4-thiadiazol-2-yl)-4-((1S,2R)-2-((tetrahydro-2H-pyran-4-ylmethyl)amino)cyclopropyl)thiophene-2-carboxamide hydrochloride], the figures for the “Platelets, Mean” value in data set [1] (1 mg/kg), in data set [1] (10 mg/kg) and in data set [1] (100 mg/kg) were 1462 10^3 cells, 1483 10^3 cells and 1533 10^3 cells, respectively. Also, the figures for the “Red blood cells, Mean” value in data set [1] (1 mg/kg), in data set [1] (10 mg/kg) and in data set [1] (100 mg/kg) were 902 10^4 cells, 890 10^4 cells and 929 10^4 cells, respectively. Also, the “White blood cells, Mean” value in data set [1] (1 mg/kg) is listed as 377 10 cells; in data set [1] (10 mg/kg), 366 10 cells; in data set [1] (100 mg/kg), 332 10 cells. For the same compound, the concentration at 1 h in data set [2] (setting [3]) worked out at 194 ng/g; in data set [2] (setting [4]), 978 ng/mL.

For the compound `Cc1nnc(NC(=O)c2cc([C@@H]3C[C@H]3NC3CCC3)cs2)s1` [Example 84, 4-((1S,2R)-2-(cyclobutylamino)cyclopropyl)-N-(5-methyl-1,3,4-thiadiazol-2-yl)thiophene-2-carboxamide dihydrochloride], the “Platelets, Mean” value in data set [1] (1 mg/kg, dihydrochloride) is 1533 10^3 cells; in data set [1] (10 mg/kg, dihydrochloride), 1627 10^3 cells; in data set [1] (100 mg/kg, dihydrochloride) it was 1665 10^3 cells. In addition, the “Red blood cells, Mean” value in data set [1] (1 mg/kg, dihydrochloride) was 910 10^4 cells; in data set [1] (10 mg/kg, dihydrochloride), 880 10^4 cells; in data set [1] (100 mg/kg, dihydrochloride), 900 10^4 cells. Further, the “White blood cells, Mean” value in data set [1] (1 mg/kg, dihydrochloride) is 370 10 cells; in data set [1] (10 mg/kg, dihydrochloride) it was 339 10 cells; in data set [1] (100 mg/kg, dihydrochloride), 313 10 cells. In addition, the concentration at 1 h in data set [2] (setting [3]) stood at 177 ng/g; in data set [2] (setting [4]) it was 523 ng/mL. In data set [2] (male, ICR, mouse, hippocampus/plasma, po, 10 mg/kg, 1 h after administration, read-out: Ratio (hippocampus/plasma), Mean), the Kp at 1 h was 0.339.

For `Cc1nnc(NC(=O)c2cc([C@@H]3C[C@H]3NC3CCC3)cs2)s1` [Example 118, 4-((1S,2R)-2-(cyclobutylamino)cyclopropyl)-N-(5-methyl-1,3,4-thiadiazol-2-yl)thiophene-2-carboxamide sulfate], in data set [1] (1 mg/kg, sulfate), the “Platelets, Mean” value is 1051 10^3 cells; the “Red blood cells, Mean” value is reported as 853 10^4 cells; the “White blood cells, Mean” value is listed as 299 10 cells. For the same compound, in data set [1] (10 mg/kg, sulfate), the “Platelets, Mean” value is reported as 1158 10^3 cells; the “Red blood cells, Mean” value is on record as 907 10^4 cells; the “White blood cells, Mean” value was 312 10 cells. For the same compound, in data set [1] (100 mg/kg, sulfate), the “Platelets, Mean” value is 1176 10^3 cells; the “Red blood cells, Mean” value is listed as 881 10^4 cells; the “White blood cells, Mean” value is listed as 245 10 cells. In data set [2] (setting [5]), the “Concentration Hippocampus, Mean” value was 0.151 µg/g and the “Concentration Plasma, Mean” value was 405 ng/mL.

For `Cc1sc(C(=O)Nc2cnn(C)c2)cc1[C@@H]1C[C@H]1NC1CCC1` [Example 123, 4-((1S,2R)-2-(cyclobutylamino)cyclopropyl)-5-methyl-N-(1-methyl-1H-pyrazol-4-yl)thiophene-2-carboxamide hydrochloride], the “Platelets, Mean” value in data set [1] (1 mg/kg, hydrochloride) is 1086 10^3 cells; in data set [1] (10 mg/kg, hydrochloride), 1234 10^3 cells; in data set [1] (100 mg/kg) it was 1333 10^3 cells. Also, the “Red blood cells, Mean” value in data set [1] (1 mg/kg, hydrochloride) is 846 10^4 cells; in data set [1] (10 mg/kg, hydrochloride), 854 10^4 cells; in data set [1] (100 mg/kg), 866 10^4 cells. Moreover, the “White blood cells, Mean” value in data set [1] (1 mg/kg, hydrochloride) was 390 10 cells; in data set [1] (10 mg/kg, hydrochloride), 368 10 cells; in data set [1] (100 mg/kg), 380 10 cells. For the same compound, the concentration at 0.5 h turned out to be 369 ng/g in data set [2] (male, ICR, mouse, hippocampus, po, 10 mg/kg, read-out: Concentration Hippocampus, Mean) and 1110 ng/mL in data set [2] (male, ICR, mouse, plasma, po, 10 mg/kg, read-out: Concentration Plasma, Mean).
